In patent publication US8623429B2, “Stabilized anthocyanin compositions” (Omnica GmbH, priority 2007, dated 2014):

Experiments:
Type in all cases: physicochemical
[1] = Example 1: stability of bilberry extract anthocyanosides, 4 hours at 37° C., pH 7.0, with/without DHLA or GSH (HPLC)
Method: (0.048 mmol anthocyanosides expressed as cyanidin-3-O-glucoside) were added to a 100 ml flask and filled to volume with sodium phosphate buffer (5% [w/w], pH=7.0), and stirred until dissolution was complete. A 1 ml sample was taken immediately and acidified with formic acid to pH=1.0 and analyzed by HPLC for the content of anthocyanosides (Fresh Sample). The remaining solution was kept for 4 hours at 37° C. (water bath) with stirring. Thereafter another sample (Blank sample), representing unprotected degradation, was taken and acidified.
(0.048 mmol expressed as cyanidin-3-O-glucoside) were then added and the flask was filled to volume with sodium phosphate buffer (5% [w/w], pH=7.0) and kept for 4 hours at 37° C. (water bath) with stirring.
Quantitation: External standardization based on linear regression analysis. The response factors of all anthocyanosides separated is quantitified against cyanidin-3-O-glucoside.
Test solutions from incubation experiments (with/without cells and with/without stabilizing agents) were used for analysis after stabilization of anthocyanosides with formic acid. Samples were cleared by filtration prior to injection on to HPLC-system.

[2] = Example 2: degradation over time of selected bilberry anthocyanosides at 37° C., pH 7.0, with/without GSH (HPLC); conditions: pH 7.0, 37° C.; for %-residual anthocyanosides (% left): 4.30 hours
Method: Sample a) 60 mg bilberry extract [37% anthocyanosides] (0.048 mmol expressed as cyanidin-3-O-glucoside) were added to a 100 ml, filled to volume with sodium phosphate buffer (5% [w/w], pH=7.0) and stirred until dissolution was complete. A 1 ml sample was immediately taken and acidified with formic acid to pH=1.0 and analyzed by HPLC for the content of anthocyanosides. The remaining solution was kept at 37° C. (water bath) with stirring and additional 1 ml samples (Blank Samples), representing unprotected degradation, were sampled every 15 minutes. The samples were analyzed for selected anthocyanosides by HPLC.
Sample b) 20 mg reduced L-glutathione (0.065 mmol) were added to a 100 ml flask with 60 ml sodium phosphate buffer (5% [w/w], pH=7.0) and stirred until dissolution was complete. 60 mg bilberry extract [37% anthocyanosides] (0.048 mmol expressed as cyanidin-3-O-glucoside) were added and the flask was filled to volume with sodium phosphate buffer (5% [w/w], pH=7.0) and kept at 37° C. (water bath) with stirring. Every 15 minutes, 1 ml samples were taken and analyzed for selected anthocyanosides by HPLC.
Samples were prepared as outlined below in HPLC Analytical Method. Test stability samples were immediately acidified (to block degradation) and injected undiluted following the detailed description provided below.
HPLC Analytical Method (Materials, Instruments and Methods): […]

[3] = Example 9: stability of bilberry extract anthocyanosides, 4 hours at 37° C., pH 7.0, with/without L-cysteine
Method: Sample a) 60 mg bilberry extract [37% anthocyanosides] (0.048 mmol anthocyanosides expressed as cyanidin-3-O-glucoside) were added to a 100 ml flask with 60 ml sodium phosphate buffer (5% [w/w], pH=7.0), and stirred until dissolution was complete. A 1 ml sample was taken immediately and acidified with formic acid to pH=1.0 and analyzed by HPLC for the content of anthocyanosides (Fresh Sample). The remaining solution was kept for 4 hours at 37° C. (water bath) with stirring. Thereafter another sample (Blank sample), representing unprotected degradation, was taken and acidified.
Sample b) 20 mg L-cysteine […] were added to a 100 ml flask with 60 ml sodium phosphate buffer (5% [w/w], pH=7.0) and stirred until dissolution was complete. 60 mg bilberry extract [37% anthocyanosides] (0.048 mmol expressed as cyanidin-3-O-glucoside) were then added to the flask and stir to fully dissolve, then kept for 4 hours at 37° C. (water bath) with stirring.
After 4 hours, samples were taken and acidified immediately with formic acid to pH=1.0 and analyzed by HPLC for the content of anthocyanosides. Degradation is expressed as decrease in peak area of individual peaks (calculated as % left after 4 hours).
Samples were prepared as outlined above in the HPLC Analytical Method. Test stability samples were immediately acidified (to block degradation) and injected undiluted following the detailed description provided below.

[4] = Cyanidin-3-O-galactoside at pH 3.1 or 7.0 with/without DHLA, 25° C. over 3 days (HPLC)
Method: Cyanidn-3-O-Galactoside (0.001 molar solution) was dissolved at pH=3.1 or pH=7.0 each with/without DHLA (1.44 mmolar solution). Replicate incubations were followed at 25° C. over 3 days by HPLC.

[5] = 20 mg reduced L-glutathione, pH 7.0, 37° C., 4 hours
[6] = 30 mg dihydrolipoic acid, pH 7.0, 37° C., 4 hours
[7] = unprotected, pH 7.0, 37° C., 4 hours

With `OC[C@H]1O[C@@H](Oc2cc3c(O)cc(O)cc3[o+]c2-c2ccc(O)c(O)c2)[C@H](O)[C@@H](O)[C@H]1O` [Cn-3O-Gal, Cyanidin-3-O-galactoside] the “% left, GSH (4 hours)” value [1, 5] was 77.3%, the “Peak Area, GSH (4 hours)” value [1, 5] was 360.2 and the “% left, DHLA (4 hours)” value [1, 6] was 64.5%. For the same compound, the “Peak Area, DHLA (4 hours)” value [1, 6] was 300.3, the “Peak Area, Fresh (0 hours)” value ([1]; bilberry extract 60 mg/100 ml sodium phosphate buffer pH 7.0, fresh sample) was 465.8 and the “% left, Blank (4 hours)” value [1, 7] was 41.0%. For the same compound, the “Peak Area, Blank (4 hours)” value [1, 7] was 191.1, the “Peak Area” value ([2]; Blank Sample, 1:15 h) was 305.40 and the “Peak Area” value ([2]; Blank Sample, 4:15 h) was 300.50. The “Peak Area” value ([2]; Blank Sample, 4:30 h) was 205.36, the “Peak Area” value ([2]; Blank sample, 0:00 h) was 498.85 and the “Peak Area” value ([2]; Blank sample, 0:15 h) was 390.37. For the same compound, the “Peak Area” value ([2]; Blank sample, 0:30 h) was 433.94, the “Peak Area” value ([2]; Blank sample, 0:45 h) was 347.29 and the “Peak Area” value ([2]; Blank sample, 1:00 h) was 380.25. For the same compound, the “Peak Area” value ([2]; Blank sample, 1:45 h) was 353.94, the “Peak Area” value ([2]; Blank sample, 2:00 h) was 337.90 and the “Peak Area” value ([2]; Blank sample, 2:15 h) was 320.70. The “Peak Area” value ([2]; Blank sample, 2:30 h) was 271.19, the “Peak Area” value ([2]; Blank sample, 2:45 h) was 274.22 and the “Peak Area” value ([2]; Blank sample, 3:00 h) was 324.58. For the same compound, the “Peak Area” value ([2]; Blank sample, 3:15 h) was 324.25, the “Peak Area” value ([2]; Blank sample, 3:30 h) was 281.19 and the “Peak Area” value ([2]; Blank sample, 4:00 h) was 315.54. For the same compound, the “%-residual anthocyanosides (% left)” value ([2]; Blank) was 41%, the “Peak Area” value ([2]; GSH Protected Sample (20 mg), 0:30 h) was 470.61 and the “Peak Area” value ([2]; GSH Protected Sample (20 mg), 1:30 h) was 431.86. For the same compound, the “Peak Area” value ([2]; GSH Protected Sample (20 mg), 2:30 h) was 390.23, the “Peak Area” value ([2]; GSH Protected Sample (20 mg), 3:30 h) was 422.54 and the “Peak Area” value ([2]; GSH Protected Sample (20 mg), 4:30 h) was 420.37. The “Peak Area” value ([2]; GSH Protected Sample (20 mg), 4:45 h) was 393.21, the “Peak Area” value ([2]; GSH protected sample (20 mg), 0:00 h) was 508.09 and the “Peak Area” value ([2]; GSH protected sample (20 mg), 0:15 h) was 504.88. For the same compound, the “Peak Area” value ([2]; GSH protected sample (20 mg), 0:45 h) was 425.89, the “Peak Area” value ([2]; GSH protected sample (20 mg), 1:00 h) was 462.71 and the “Peak Area” value ([2]; GSH protected sample (20 mg), 1:15 h) was 452.17. The “Peak Area” value ([2]; GSH protected sample (20 mg), 1:45 h) was 442.86, the “Peak Area” value ([2]; GSH protected sample (20 mg), 2:00 h) was 436.19 and the “Peak Area” value ([2]; GSH protected sample (20 mg), 2:15 h) was 442.30. For the same compound, the “Peak Area” value ([2]; GSH protected sample (20 mg), 2:45 h) was 422.32, the “Peak Area” value ([2]; GSH protected sample (20 mg), 3:00 h) was 433.21 and the “Peak Area” value ([2]; GSH protected sample (20 mg), 3:15 h) was 425.54. For the same compound, the “Peak Area” value ([2]; GSH protected sample (20 mg), 3:45 h) was 397.72, the “Peak Area” value ([2]; GSH protected sample (20 mg), 4:00 h) was 446.42 and the “Peak Area” value ([2]; GSH protected sample (20 mg), 4:15 h) was 419.80. The “%-residual anthocyanosides (% left)” value ([2]; GSH-protected) was 77%, the “%-residual anthocyanosides (% left)” value ([2]; GSH-protected, listed as cyanidin-3-O-galactose) was 77% and the “Peak Area, Fresh solution” value ([3]; bilberry extract 60 mg in buffer pH 7.0, fresh sample) was 465.8. For the same compound, the “% left, L-cysteine 20 mg” value ([3]; pH 7.0, 37° C., 4 hours) was 77.3%, the “Peak Area, L-cysteine 20 mg” value ([3]; pH 7.0, 37° C., 4 hours) was 360.2 and the “% left, Blank” value [3, 7] was 41.0%. The “Peak Area, Blank” value [3, 7] was 191.1, the “recovered after 3 days” value ([4]; pH 3.1, 25° C., in presence of DHLA (1.44 mmolar)) was 95% and the “recovered after 3 days” value ([4]; pH 3.1, 25° C., unprotected sample) was 61%. The “recovered after 3 days” value ([4]; pH 7.0, 25° C., in presence of DHLA (1.44 mmolar)) was “about 47%” and the “recovered after 3 days” value ([4]; pH 7.0, 25° C., unprotected sample) was roughly 0%.
